The source of these data is the NIST ThermoML archive (doi:10.1016/j.tca.2015.09.017).

± gives the expanded uncertainty stated by the source.

The conditions of this data set: 101.33 kPa, Liquid, Photoacoustic measurements.

For `OCCO` [1,2-ethanediol], the thermal diffusivity was 9.84e-08 ± 3.9e-09 m2/s (298.15 K); 9.73e-08 ± 3.9e-09 m2/s (308.15 K); 9.68e-08 ± 3.9e-09 m2/s (318.15 K); 9.49e-08 ± 3.8e-09 m2/s (328.15 K); 9.42e-08 ± 3.8e-09 m2/s (338.15 K).
For `O` [water], the thermal diffusivity runs as follows: (298.15 K) 1.49e-07 ± 6e-09 m2/s; (308.15 K) 1.53e-07 ± 6e-09 m2/s; (318.15 K) 1.56e-07 ± 6e-09 m2/s; (328.15 K) 1.59e-07 ± 6e-09 m2/s; (338.15 K) 1.61e-07 ± 6e-09 m2/s.
